Laboratory results: publication PMC7745731 (ACS infectious diseases, 2020)

Molecular target: FadD17 (Rv3506) (Mycobacterium tuberculosis, UniProt O53551)
Sequence (O53551 whole entry): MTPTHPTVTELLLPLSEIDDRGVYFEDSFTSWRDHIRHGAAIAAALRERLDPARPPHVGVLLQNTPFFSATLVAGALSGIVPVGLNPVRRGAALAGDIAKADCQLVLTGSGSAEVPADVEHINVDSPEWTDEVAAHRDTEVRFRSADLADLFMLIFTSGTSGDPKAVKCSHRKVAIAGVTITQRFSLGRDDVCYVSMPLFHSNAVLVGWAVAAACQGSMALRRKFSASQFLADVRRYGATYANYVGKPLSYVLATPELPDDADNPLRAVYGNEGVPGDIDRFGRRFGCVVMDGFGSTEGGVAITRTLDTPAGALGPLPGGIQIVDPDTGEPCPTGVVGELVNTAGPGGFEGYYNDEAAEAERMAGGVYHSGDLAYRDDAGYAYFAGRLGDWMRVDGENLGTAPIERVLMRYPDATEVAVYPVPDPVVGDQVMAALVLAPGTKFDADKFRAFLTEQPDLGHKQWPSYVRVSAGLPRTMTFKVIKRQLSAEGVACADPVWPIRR

C[C@H](/C=C/C(=O)O)[C@H]1CC[C@H]2[C@@H]3CCC4=CC(=O)CC[C@]4(C)[C@H]3CC[C@]12C [3-OCDO-acid]
preparative CoA ligation, HPLC: 3-OCDO-CoA was then synthesized enzymatically from the 3-OCDO-acid using the steroid-CoA ligase FadD17
